From article PMC2931804 (Clinical cancer research : an official journal of the …, 2010)
Where two headings read alike, the source gives them in different places.

[1] = DL3 800 mg twice daily × 3 + sLV5FU2, Any cycle, n = 3
[2] = DL3 1,000 mg once daily × 3 + sLV5FU2, 1st cycle, n = 3
[3] = DL3 1,000 mg once daily × 3 + sLV5FU2, Any cycle, n = 3
[4] = DL4 1,200 mg once daily × 3 + sLV5FU2, 1st cycle, n = 3
[5] = DL4 1,200 mg once daily × 3 + sLV5FU2, Any cycle, n = 3
[6] = DL5 1,400 mg once daily × 3 + sLV5FU2, 1st cycle, n = 3
[7] = DL5 1,400 mg once daily × 3 + sLV5FU2, Any cycle, n = 3
[8] = DL6 1,700 mg once daily × 3 + sLV5FU2, 1st cycle, n = 6
[9] = DL6 1,700 mg once daily × 3 + sLV5FU2, Any cycle, n = 6
[10] = DL7 2,000 mg once daily × 3 + sLV5FU2, 1st cycle, n = 3
[11] = DL7 2,000 mg once daily × 3 + sLV5FU2, Any cycle, n = 3

O=C(CCCCCCC(=O)Nc1ccccc1)NO [vorinostat, suberoylanilide hydroxamic acid]
0/2/0: Infection, treatment-related, patients (G2/G3/G4) [9] | Anemia, treatment-related, patients (G2/G3/G4) [10] | Anemia, treatment-related, patients (G2/G3/G4) [11] | Fatigue, treatment-related, patients (G2/G3/G4) [11]
6/0/0: Fatigue, treatment-related, patients (G2/G3/G4) [9]
None: Patients with DLT (DL6 1,700 mg once daily × 3 + sLV5FU2, six patients)
3/2/0: Diarrhea, treatment-related, patients (G2/G3/G4) [9]
0/0/1: VTE, treatment-related, patients (G2/G3/G4) [1]
1,700 mg: MTD of vorinostat, once-daily schedule (orally once daily × 3 days every 2 weeks, in combination with sLV5FU2)
0/1/0: DVT/PE, treatment-related, patients (G2/G3/G4) [5] | Diarrhea, treatment-related, patients (G2/G3/G4) [5] | Neutropenia, treatment-related, patients (G2/G3/G4) [7] | Diarrhea, treatment-related, patients (G2/G3/G4) [8] | DVT/PE, treatment-related, patients (G2/G3/G4) [9] | GI bleed, treatment-related, patients (G2/G3/G4) [10] | Thrombocytopenia, treatment-related, patients (G2/G3/G4) [10] | GI bleed, treatment-related, patients (G2/G3/G4) [11] | Hand and Foot, treatment-related, patients (G2/G3/G4) [11] | Thrombocytopenia, treatment-related, patients (G2/G3/G4) [11]
2/1/0: Thrombocytopenia, treatment-related, patients (G2/G3/G4) [1] | Anemia, treatment-related, patients (G2/G3/G4) [9] | Dehydration, treatment-related, patients (G2/G3/G4) [9]
0/0/0: Nausea, treatment-related, patients (G2/G3/G4) [1] | Vomiting, treatment-related, patients (G2/G3/G4) [1] | Anorexia, treatment-related, patients (G2/G3/G4) [2] | DVT/PE, treatment-related, patients (G2/G3/G4) [2] | Dehydration, treatment-related, patients (G2/G3/G4) [2] | Diarrhea, treatment-related, patients (G2/G3/G4) [2] | GI bleed, treatment-related, patients (G2/G3/G4) [2] | Hand and Foot, treatment-related, patients (G2/G3/G4) [2] | Infection, treatment-related, patients (G2/G3/G4) [2] | Mucositis, treatment-related, patients (G2/G3/G4) [2] | Nausea, treatment-related, patients (G2/G3/G4) [2] | Neutropenia, treatment-related, patients (G2/G3/G4) [2] | Thrombocytopenia, treatment-related, patients (G2/G3/G4) [2] | Vomiting, treatment-related, patients (G2/G3/G4) [2] | Weight Loss, treatment-related, patients (G2/G3/G4) [2] | Anorexia, treatment-related, patients (G2/G3/G4) [3] | DVT/PE, treatment-related, patients (G2/G3/G4) [3] | Dehydration, treatment-related, patients (G2/G3/G4) [3] | Diarrhea, treatment-related, patients (G2/G3/G4) [3] | GI bleed, treatment-related, patients (G2/G3/G4) [3] | Hand and Foot, treatment-related, patients (G2/G3/G4) [3] | Infection, treatment-related, patients (G2/G3/G4) [3] | Nausea, treatment-related, patients (G2/G3/G4) [3] | Neutropenia, treatment-related, patients (G2/G3/G4) [3] | Thrombocytopenia, treatment-related, patients (G2/G3/G4) [3] | Vomiting, treatment-related, patients (G2/G3/G4) [3] | Weight Loss, treatment-related, patients (G2/G3/G4) [3] | Anemia, treatment-related, patients (G2/G3/G4) [4] | Anorexia, treatment-related, patients (G2/G3/G4) [4] | DVT/PE, treatment-related, patients (G2/G3/G4) [4] | Dehydration, treatment-related, patients (G2/G3/G4) [4] | Diarrhea, treatment-related, patients (G2/G3/G4) [4] | GI bleed, treatment-related, patients (G2/G3/G4) [4] | Hand and Foot, treatment-related, patients (G2/G3/G4) [4] | Infection, treatment-related, patients (G2/G3/G4) [4] | Mucositis, treatment-related, patients (G2/G3/G4) [4] | Nausea, treatment-related, patients (G2/G3/G4) [4] | Neutropenia, treatment-related, patients (G2/G3/G4) [4] | Thrombocytopenia, treatment-related, patients (G2/G3/G4) [4] | Weight Loss, treatment-related, patients (G2/G3/G4) [4] | Anemia, treatment-related, patients (G2/G3/G4) [5] | Dehydration, treatment-related, patients (G2/G3/G4) [5] | GI bleed, treatment-related, patients (G2/G3/G4) [5] | Hand and Foot, treatment-related, patients (G2/G3/G4) [5] | Infection, treatment-related, patients (G2/G3/G4) [5] | Mucositis, treatment-related, patients (G2/G3/G4) [5] | Neutropenia, treatment-related, patients (G2/G3/G4) [5] | Thrombocytopenia, treatment-related, patients (G2/G3/G4) [5] | Anemia, treatment-related, patients (G2/G3/G4) [6] | Anorexia, treatment-related, patients (G2/G3/G4) [6] | DVT/PE, treatment-related, patients (G2/G3/G4) [6] | Dehydration, treatment-related, patients (G2/G3/G4) [6] | Diarrhea, treatment-related, patients (G2/G3/G4) [6] | Fatigue, treatment-related, patients (G2/G3/G4) [6] | GI bleed, treatment-related, patients (G2/G3/G4) [6] | Hand and Foot, treatment-related, patients (G2/G3/G4) [6] | Infection, treatment-related, patients (G2/G3/G4) [6] | Mucositis, treatment-related, patients (G2/G3/G4) [6] | Nausea, treatment-related, patients (G2/G3/G4) [6] | Thrombocytopenia, treatment-related, patients (G2/G3/G4) [6] | Vomiting, treatment-related, patients (G2/G3/G4) [6] | Weight Loss, treatment-related, patients (G2/G3/G4) [6] | DVT/PE, treatment-related, patients (G2/G3/G4) [7] | Dehydration, treatment-related, patients (G2/G3/G4) [7] | GI bleed, treatment-related, patients (G2/G3/G4) [7] | Hand and Foot, treatment-related, patients (G2/G3/G4) [7] | Infection, treatment-related, patients (G2/G3/G4) [7] | Mucositis, treatment-related, patients (G2/G3/G4) [7] | Nausea, treatment-related, patients (G2/G3/G4) [7] | Thrombocytopenia, treatment-related, patients (G2/G3/G4) [7] | Anemia, treatment-related, patients (G2/G3/G4) [8] | DVT/PE, treatment-related, patients (G2/G3/G4) [8] | Dehydration, treatment-related, patients (G2/G3/G4) [8] | GI bleed, treatment-related, patients (G2/G3/G4) [8] | Hand and Foot, treatment-related, patients (G2/G3/G4) [8] | Infection, treatment-related, patients (G2/G3/G4) [8] | Mucositis, treatment-related, patients (G2/G3/G4) [8] | Neutropenia, treatment-related, patients (G2/G3/G4) [8] | Thrombocytopenia, treatment-related, patients (G2/G3/G4) [8] | Vomiting, treatment-related, patients (G2/G3/G4) [8] | Weight Loss, treatment-related, patients (G2/G3/G4) [8] | GI bleed, treatment-related, patients (G2/G3/G4) [9] | Hand and Foot, treatment-related, patients (G2/G3/G4) [9] | Weight Loss, treatment-related, patients (G2/G3/G4) [9] | DVT/PE, treatment-related, patients (G2/G3/G4) [10] | Diarrhea, treatment-related, patients (G2/G3/G4) [10] | Infection, treatment-related, patients (G2/G3/G4) [10] | Mucositis, treatment-related, patients (G2/G3/G4) [10] | Vomiting, treatment-related, patients (G2/G3/G4) [10] | Weight Loss, treatment-related, patients (G2/G3/G4) [10] | DVT/PE, treatment-related, patients (G2/G3/G4) [11] | Diarrhea, treatment-related, patients (G2/G3/G4) [11] | Infection, treatment-related, patients (G2/G3/G4) [11] | Mucositis, treatment-related, patients (G2/G3/G4) [11] | Vomiting, treatment-related, patients (G2/G3/G4) [11] | Weight Loss, treatment-related, patients (G2/G3/G4) [11]
without any DLT: DLT (once-daily dose levels 1 through 6, three patients each)
3/0/0: Fatigue, treatment-related, patients (G2/G3/G4) [8]
2/0/0: Neutropenia, treatment-related, patients (G2/G3/G4) [1] | Fatigue, treatment-related, patients (G2/G3/G4) [3] | Fatigue, treatment-related, patients (G2/G3/G4) [4] | Fatigue, treatment-related, patients (G2/G3/G4) [5] | Vomiting, treatment-related, patients (G2/G3/G4) [5] | Diarrhea, treatment-related, patients (G2/G3/G4) [7] | Fatigue, treatment-related, patients (G2/G3/G4) [7] | Anorexia, treatment-related, patients (G2/G3/G4) [8] | Nausea, treatment-related, patients (G2/G3/G4) [8] | Anorexia, treatment-related, patients (G2/G3/G4) [11] | Nausea, treatment-related, patients (G2/G3/G4) [11]
3/3/0: Vomiting, treatment-related, patients (G2/G3/G4) [9]
600 mg: MTD of vorinostat, twice-daily schedule (orally twice daily × 3 days every 2 weeks, in combination with sLV5FU2)
1/0/0: Anemia, treatment-related, patients (G2/G3/G4) [2] | Fatigue, treatment-related, patients (G2/G3/G4) [2] | Anemia, treatment-related, patients (G2/G3/G4) [3] | Mucositis, treatment-related, patients (G2/G3/G4) [3] | Vomiting, treatment-related, patients (G2/G3/G4) [4] | Anorexia, treatment-related, patients (G2/G3/G4) [5] | Nausea, treatment-related, patients (G2/G3/G4) [5] | Weight Loss, treatment-related, patients (G2/G3/G4) [5] | Neutropenia, treatment-related, patients (G2/G3/G4) [6] | Anemia, treatment-related, patients (G2/G3/G4) [7] | Anorexia, treatment-related, patients (G2/G3/G4) [7] | Vomiting, treatment-related, patients (G2/G3/G4) [7] | Weight Loss, treatment-related, patients (G2/G3/G4) [7] | Neutropenia, treatment-related, patients (G2/G3/G4) [9] | Thrombocytopenia, treatment-related, patients (G2/G3/G4) [9] | Anorexia, treatment-related, patients (G2/G3/G4) [10] | Dehydration, treatment-related, patients (G2/G3/G4) [10] | Nausea, treatment-related, patients (G2/G3/G4) [10] | Neutropenia, treatment-related, patients (G2/G3/G4) [10] | Neutropenia, treatment-related, patients (G2/G3/G4) [11]
1/1/0: Mucositis, treatment-related, patients (G2/G3/G4) [9] | Dehydration, treatment-related, patients (G2/G3/G4) [11]
